Data on 1 compound can be found in article PMC8746493, “Co-Inhibition of P-gp and Hsp90 by an Isatin-Derived Compound Contributes to the Increase of the Chemosensitivity of MCF7/ADR-Resistant Cells to Doxorubicin” (Molecules, 2021).

In this experiment the target is T1, Hsp90α (Homo sapiens, UniProt P07900).
T1 construct: gene HSP90AA1; full length protein
Briefly: SPR (Biacore […], immobilized recombinant Hsp90α). The format is binding. A general note: Surface plasmon resonance follows binding to a sensor surface in real time, without labels.

For `O=C(CN1C(=O)NC(c2ccccc2)(c2ccccc2)C1=O)NN=C1C(=O)Nc2ccc(F)cc21` [compound 16, HAA2021], the Kd is 41.2 ± 2.1 nM.

One may read the Kd as the constant that tells how readily two partners part at equilibrium.
